The target in test [1] is human RORγt ligand binding domain (RORγt LBD) (Homo sapiens (Human), UniProt P51449). Kind of test: RORγt ThermoFluor assay. Put shortly: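 Thermal shift of His-tagged human RORγt LBD (0.065 mg/mL) with 60 μM 1,8-ANS in 100 mM Hepes pH 7.0, 10 mM NaCl, 2.5 mM GSH, 0.002% Tween-20, heated at 1° C./min. Compounds in 1:2 series from a 10 mM DMSO stock; KD estimated from ΔTm using protein unfolding thermodynamics.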

Test [2] has as its target full-length human RORγt (Homo sapiens (Human), UniProt P51449). Kind of test: RORγt (full-length human) reporter assay, conditions A or B. As to conditions: for IC50: HEK293T cells, read-out: RORγt (FL) Reporter Assay A or B, IC50; for inhibition at 6 µM: read-out: RORγt (FL) Reporter Assay A or B, % inhibition @ 6 μM, 6 μM compound concentration; for inhibition at 0.22 µM: 0.22 μM compound concentration (******); for inhibition at 3 µM: 3 μM compound concentration (*). The class given is cell-based. A digest of the protocol:
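HEK293T cells transiently co-transfected (PEI) with GAL4-DBD–RORγt, GAL4-firefly luciferase and CMV-Renilla reporters; condition A 35,000 cells/well, 170.5 ng DNA/well; condition B 8750 cells/well, 42.6 ng DNA/well.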
On the technique in general: A reporter such as luciferase makes a cellular process visible.

Where [3] appears, read: 0.67 μM compound concentration (****), read-out: RORγt (FL) Reporter Assay A or B, % inhibition.
Where [4] appears, read: read-out: RORγt (FL) Reporter Assay A or B, % inhibition.

Marks after values point to notes of the source that are not given here.

Sequence of full-length human RORγt (P51449 other isoform, or with tags, fused parts or gaps): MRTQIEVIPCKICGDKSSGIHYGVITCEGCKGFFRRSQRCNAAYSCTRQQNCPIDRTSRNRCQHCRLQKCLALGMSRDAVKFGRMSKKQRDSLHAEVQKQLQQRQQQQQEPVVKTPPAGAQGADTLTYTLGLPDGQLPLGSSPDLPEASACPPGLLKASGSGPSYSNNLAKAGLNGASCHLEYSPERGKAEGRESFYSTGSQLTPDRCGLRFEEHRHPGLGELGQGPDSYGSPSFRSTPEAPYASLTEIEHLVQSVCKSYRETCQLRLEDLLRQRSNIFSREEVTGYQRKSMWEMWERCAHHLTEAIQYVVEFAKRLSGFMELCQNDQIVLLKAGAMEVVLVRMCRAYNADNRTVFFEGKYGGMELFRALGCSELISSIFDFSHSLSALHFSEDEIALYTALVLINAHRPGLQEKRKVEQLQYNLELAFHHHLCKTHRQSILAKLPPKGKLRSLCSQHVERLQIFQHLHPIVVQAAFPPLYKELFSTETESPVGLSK
Sequence of human RORγt ligand binding domain (RORγt LBD) (P51449 other isoform, or with tags, fused parts or gaps): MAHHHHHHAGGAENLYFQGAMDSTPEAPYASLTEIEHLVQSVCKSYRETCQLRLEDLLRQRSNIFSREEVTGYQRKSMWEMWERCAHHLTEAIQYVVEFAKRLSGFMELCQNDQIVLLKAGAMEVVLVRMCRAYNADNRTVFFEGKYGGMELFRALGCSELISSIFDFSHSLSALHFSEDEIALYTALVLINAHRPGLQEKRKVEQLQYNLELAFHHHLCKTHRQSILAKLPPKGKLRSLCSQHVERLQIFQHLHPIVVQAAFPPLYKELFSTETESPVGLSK

For the compound `CCc1nc(C(=O)NC[C@]2(O)CC[C@@H](S(C)(=O)=O)CC2)c(F)n1-c1ccc(CC(C)(C)C(F)(F)F)cc1OC(F)F` [Example 35, 1-(2-(Difluoromethoxy)-4-(3,3,3-trifluoro-2,2-dimethylpropyl)phenyl)-2-ethyl-5-fluoro-N-(((1s,4s)-1-hydroxy-4-(methylsulfonyl)cyclohexyl)methyl)-1H-imidazole-4-carboxamide], the Kd in test [1] was determined as 11 nM. Further, in test [2], the IC50 amounted to 28 nM and the inhibition at 6 µM came out at 97%.
`CCc1nc(C(=O)NC[C@]2(C#N)CC[C@@H](S(C)(=O)=O)CC2)c(C#N)n1-c1ccc(CC(C)(C)C(F)(F)F)cc1OC(F)F` [Example 37, 5-Cyano-N-(((1s*,4s*)-1-cyano-4-(methylsulfonyl)cyclohexyl)methyl)-1-(2-(difluoromethoxy)-4-(3,3,3-trifluoro-2,2-dimethylpropyl)phenyl)-2-ethyl-1H-imidazole-4-carboxamide] came in with a Kd in test [1] of 0.87 nM. Moreover, the “RORγt (FL) Reporter Assay A or B, % inhibition” value in test [2] (0.67 μM compound concentration (****)) is reported as 105**** %. In addition, the IC50 in test [2] was found to be 5.3 nM.
On to `CCc1nc(C(=O)NC[C@]2(C#N)CC[C@@H](S(C)(=O)=O)CC2)c(F)n1-c1ccc(CC(C)(C)C(F)(F)F)cc1OC(F)F` [Example 38, N-(((1s*,4s*)-1-Cyano-4-(methylsulfonyl)cyclohexyl)methyl)-1-(2-(difluoromethoxy)-4-(3,3,3-trifluoro-2,2-dimethylpropyl)phenyl)-2-ethyl-5-fluoro-1H-imidazole-4-carboxamide], for which the Kd in test [1] turned out to be 4.4 nM. Besides, in test [2] (setting [3]), the inhibition at 0.67 µM came out at 97%. The half-maximal inhibitory concentration (IC50) in test [2] is 19 nM.
The corresponding values for `C#Cc1c(C(=O)NC[C@]2(C#N)CC[C@@H](S(C)(=O)=O)CC2)nc(CC)n1-c1ccc(CC(C)(C)C(F)(F)F)cc1OC(F)F` [Example 39, N-(((1s*,4s*)-1-Cyano-4-(methylsulfonyl)cyclohexyl)methyl)-1-(2-(difluoromethoxy)-4-(3,3,3-trifluoro-2,2-dimethylpropyl)phenyl)-2-ethyl-5-ethynyl-1H-imidazole-4-carboxamide] are 0.42 nM, 101% and 7.9 nM.
With `C#Cc1c(C(=O)NC[C@]2(O)CC[C@@H](S(C)(=O)=O)CC2)nc(CC)n1-c1ccc(CC(C)(C)C(F)(F)F)cc1OC(F)F` [Example 40, 1-(2-(Difluoromethoxy)-4-(3,3,3-trifluoro-2,2-dimethylpropyl)phenyl)-2-ethyl-5-ethynyl-N-(((1s,4s)-1-hydroxy-4-(methylsulfonyl)cyclohexyl)methyl)-1H-imidazole-4-carboxamide], the affinity in test [1], expressed as Kd, was 0.73 nM. Also, the inhibition at 2 µM in test [2] (2 μM compound concentration (**), read-out: RORγt (FL) Reporter Assay A or B, % inhibition) amounted to 105%. For the same compound, the IC50 in test [2] amounted to 3.2 nM.
With `C#Cc1c(C(=O)NC[C@H]2CC[C@H](S(C)(=O)=O)CC2)nc(CC)n1-c1ccc(CC(C)(C)C(F)(F)F)cc1OC(F)F` [Example 41, 1-(2-(Difluoromethoxy)-4-(3,3,3-trifluoro-2,2-dimethylpropyl)phenyl)-2-ethyl-5-ethynyl-N-(((1r,4r)-4-(methylsulfonyl)cyclohexyl)methyl)-1H-imidazole-4-carboxamide], the Kd in test [1] worked out at 0.19 nM. Besides, the inhibition at 0.67 µM in test [2] (setting [3]) amounted to 106%. Besides, in test [2], the IC50 came out at 2.7 nM.
Turning to `CCc1nc(C(=O)NC[C@H]2CC[C@H](S(C)(=O)=O)CC2)c(Cl)n1-c1ccc(CC(C)(C)C(F)(F)F)c(OC)c1` [Example 42, 5-Chloro-2-ethyl-1-(3-methoxy-4-(3,3,3-trifluoro-2,2-dimethylpropyl)phenyl)-N-(((1r,4r)-4-(methylsulfonyl)cyclohexyl)methyl)-1H-imidazole-4-carboxamide], the affinity in test [1], expressed as Kd, was 1.1 nM. The inhibition at 0.22 µM in test [2] (setting [4]) is 66%. In test [2], the IC50 came to 6.2 nM.
In turn, `CCc1nc(C(=O)NC[C@]2(O)CC[C@@H](S(C)(=O)=O)CC2)c(Cl)n1-c1ccc(CC(C)(C)C(F)(F)F)c(OC)c1` [Example 43, 5-Chloro-2-ethyl-N-(((1s,4s)-1-hydroxy-4-(methylsulfonyl)cyclohexyl)methyl)-1-(3-methoxy-4-(3,3,3-trifluoro-2,2-dimethylpropyl)phenyl)-1H-imidazole-4-carboxamide] showed a Kd in test [1] of 2.2 nM. Moreover, in test [2] (setting [3]), the inhibition at 0.67 µM was determined as 86%. Further, in test [2], the IC50 came to 3.2 nM.
`CCc1nc(C(=O)NC[C@H]2CC[C@H](S(C)(=O)=O)CC2)c(C)n1-c1ccc(CC(C)(C)C(F)(F)F)c(OC)c1` [Example 44, 2-Ethyl-1-(3-methoxy-4-(3,3,3-trifluoro-2,2-dimethylpropyl)phenyl)-5-methyl-N-(((1r,4r)-4-(methylsulfonyl)cyclohexyl)methyl)-1H-imidazole-4-carboxamide]: binding in test [1] was put at a Kd of 4.1 nM. Also, the inhibition at 0.22 µM in test [2] (setting [4]) is 75%. The IC50 in test [2] came out at 31 nM.
Turning to `CCc1nc(C(=O)NC[C@]2(O)CC[C@@H](S(C)(=O)=O)CC2)c(C)n1-c1ccc(CC(C)(C)C(F)(F)F)c(OC)c1` [Example 45, 2-Ethyl-N-(((1s,4s)-1-hydroxy-4-(methylsulfonyl)cyclohexyl)methyl)-1-(3-methoxy-4-(3,3,3-trifluoro-2,2-dimethylpropyl)phenyl)-5-methyl-1H-imidazole-4-carboxamide], in test [1], the Kd is 7.7 nM. Besides, the inhibition at 0.67 µM in test [2] (setting [3]) was found to be 77%. Besides, the IC50 in test [2] was determined as 11 nM.
Turning to `CCc1nc(C(=O)NC[C@]2(O)CC[C@@H](S(C)(=O)=O)CC2)c(Cl)n1-c1ncc(CC(C)(C)C(F)(F)F)cc1OC(F)F` [Example 46, 5-Chloro-1-(3-(difluoromethoxy)-5-(3,3,3-trifluoro-2,2-dimethylpropyl)pyridin-2-yl)-2-ethyl-N-(((1s,4s)-1-hydroxy-4-(methylsulfonyl)cyclohexyl)methyl)-1H-imidazole-4-carboxamide], the Kd in test [1] turned out to be 3.1 nM. In addition, in test [2], the IC50 is 28 nM and the inhibition at 6 µM came to 97%.
The corresponding values for `CCc1nc(C(=O)NC[C@H]2CC[C@H](S(C)(=O)=O)CC2)c(C)n1-c1ncc(CC(C)(C)C(F)(F)F)cc1OC(F)F` [Example 49, 1-(3-(Difluoromethoxy)-5-(3,3,3-trifluoro-2,2-dimethylpropyl)pyridin-2-yl)-2-ethyl-5-methyl-N-(((1r,4r)-4-(methylsulfonyl)cyclohexyl)methyl)-1H-imidazole-4-carboxamide] are 5.8 nM, 14 nM and 94%.
In turn, `CCc1nc(C(=O)NC[C@H]2CC[C@H](S(C)(=O)=O)CC2)c(C)n1-c1ncc(CCCC(F)(F)F)cc1OC(F)F` [Example 51, 1-(3-(Difluoromethoxy)-5-(4,4,4-trifluorobutyl)pyridin-2-yl)-2-ethyl-5-methyl-N-(((1r,4r)-4-(methylsulfonyl)cyclohexyl)methyl)-1H-imidazole-4-carboxamide] gave a Kd in test [1] of 120 nM. For the same compound, in test [2], the IC50 was 140 nM and the inhibition at 6 µM came to 84%.
In test [1], `Cc1nc(C(=O)NC[C@H]2CC[C@H](S(C)(=O)=O)CC2)c(C#N)n1-c1ccc(CC(C)(C)C(F)(F)F)cc1OC(F)F` [Example 53, 5-Cyano-1-(2-(difluoromethoxy)-4-(3,3,3-trifluoro-2,2-dimethylpropyl)phenyl)-2-methyl-N-(((1r,4r)-4-(methylsulfonyl)cyclohexyl)methyl)-1H-imidazole-4-carboxamide] showed a Kd of 2.5 nM. In test [2] (setting [4]), the inhibition at 3 µM worked out at 84%. For the same compound, in test [2], the IC50 is 11 nM.
In test [1], `Cc1nc(C(=O)NC[C@]2(O)CC[C@@H](S(C)(=O)=O)CC2)c(C#N)n1-c1ccc(CC(C)(C)C(F)(F)F)cc1OC(F)F` [Example 54, 5-Cyano-1-(2-(difluoromethoxy)-4-(3,3,3-trifluoro-2,2-dimethylpropyl)phenyl)-N-(((1s,4s)-1-hydroxy-4-(methylsulfonyl)cyclohexyl)methyl)-2-methyl-1H-imidazole-4-carboxamide] showed a Kd of 11 nM. Further, the inhibition at 1 µM in test [2] (1 μM compound concentration (***), read-out: RORγt (FL) Reporter Assay A or B, % inhibition) came out at 83%. The IC50 in test [2] was found to be 35 nM.
On to `CCc1nc(C(=O)NC[C@]2(O)CC[C@@H](S(C)(=O)=O)CC2)c(Cl)n1-c1ncc(CC(C(F)(F)F)C(F)(F)F)cc1OC(F)F` [Example 62, 5-Chloro-1-(3-(difluoromethoxy)-5-(3,3,3-trifluoro-2-(trifluoromethyl)propyl)pyridin-2-yl)-2-ethyl-N-(((1s,4s)-1-hydroxy-4-(methylsulfonyl)cyclohexyl)methyl)-1H-imidazole-4-carboxamide], for which binding in test [1] was put at a Kd of 19 nM. For the same compound, the inhibition at 3 µM in test [2] (setting [4]) was 100%. Further, the IC50 in test [2] amounted to 89 nM.
The corresponding values for `CCc1nc(C(=O)NC[C@H]2CC[C@H](S(C)(=O)=O)CC2)c(Cl)n1-c1ncc(CC(C(F)(F)F)C(F)(F)F)cc1OC(F)F` [Example 63, 5-Chloro-1-(3-(difluoromethoxy)-5-(3,3,3-trifluoro-2-(trifluoromethyl)propyl)pyridin-2-yl)-2-ethyl-N-(((1r,4r)-4-(methylsulfonyl)cyclohexyl)methyl)-1H-imidazole-4-carboxamide] are 7.3 nM, 95% and 47 nM.

By Kd is commonly meant the constant that tells how readily two partners part at equilibrium. A low value points to a tighter complex. A word on the IC50: it is the point on the concentration scale where inhibition reaches its midpoint. One may read the inhibition as the drop in the measured response relative to a control, in per cent.

These data come from patent US11345666B2, “Phenyl and pyridinyl substituted imidazoles as modulators of RORγT” (Janssen Pharmaceutica NV, priority 2018, dated 2022).
